Test results taken from patent US6713512B1, “Uses of kombic acid as an anticancer and cholesterol-lowering agent” (priority 2001, dated 2004).
Values after ≈ are worked out from the molar mass of the structure shown. Values joined by “and” are separate entries in the source; they are usually repeats but may differ in a detail not shown here. Equal values may be shown once. Read-outs that look alike come from different tables or passages of the source. Each block holds one compound with its values, some of them ahead of it.

Assays:
MCF-7 cells = experiment: Effect of excess estrogen on inhibition in steroid-depleted cells; format: cell-based, human; conditions: presence of estradiol
Description: The effect of Kombic Acid and its derivatives on the estrogen receptor is investigated. Human cancer cells in culture, such as, but not limited to, MCF-7 cells are depleted of steroids and treated with Kombic Acid, its derivatives, tocotrienols, or tamoxifen (used as a positive control) in the presence or absence of estradiol.

[1] = system: Human low density lipoprotein; experiment: Copper-induced lipid peroxidation of human low density lipoprotein (MDA/thiobarbituric acid); format: biochemical; conditions: for IC50: 10 μM copper; for antioxidant activity compared with natural vitamin E: result in words
Protocol: Human low density lipoprotein was dialyzed, incubated with or without inhibitor, and then treated with 10 μM copper to induce lipid peroxidation for several hours. The extent of lipid peroxidation was determined by the amount of malondialdehyde produced, which was determined by reaction with thiobarbituric acid as described above.

[2] = Oxygen Stability Index of edible oil; format: physicochemical; conditions: for antioxidant effectiveness in edible oil: result in words; for Hours to end-point: 110° C.
Protocol: The Oxygen Stability Index is used to measure the effectiveness of antioxidants in the stabilization of edible oils against oxidative degradation. The “Hours to end-point” indicate when a time/conductivity curve changes shape, with a sharp slope upturn at that time point. The temperature of the test, which measures conductivity of a solution into which oxidation products from the oil being tested is passed, is 110° C.

[3] = system: Rat liver microsomes lipid peroxidation; experiment: Lipid peroxidation in rat liver microsomes induced by ascorbic acid and ferrous sulfate (MDA/thiobarbituric acid); format: biochemical; conditions: for IC50: concentration required to inhibit lipid peroxidation by 50%, obtained by plotting
Protocol: Rat liver microsomes, previously incubated with or without inhibitor, were treated with ascorbic acid and ferrous sulfate to induce lipid peroxidation. The extent of lipid peroxidation was determined by the amount of malondialdehyde produced, which was determined by reaction with thiobarbituric acid.
Biological specimens contain a mixture of thiobarbituric acid reactive substances (TBARS), including lipid hydroperoxides and aldehydes, which increase as a result of oxidative stress. TBARS return to normal levels over time, depending upon the presence of antioxidants. In practice, TBARS are expressed in terms of malondialdehyde (MDA) equivalents. In this assay, an MDA standard is used to construct a standard curve against which unknown samples can be plotted. The presence of this compound is measured by fluorometry or spectrophotometry.

[4] = Plasma cholesterol and apoB in humans; format: in vivo
Description: (§1) Hypercholesterolemia associated with elevated LDL (low-density lipoprotein) cholesterol is a risk factor for CHD (coronary heart disease). LDL-cholesterol combined with oxidative stress can contribute to the formation and development of atherosclerotic plaques. To lower the risk of CHD, antioxidants such as Kombic Acid and its derivatives counteract LDL oxidation.

[5] = system: Ehrlich carcinoma, sarcoma 180, implanted murine carcinoma (IMC) tumors, Meth-A fibrosarcoma; experiment: Survival of mice bearing tumor cells; format: in vivo; conditions: injected intraperitoneally
Description: Such mice bearing tumor cells include, but are not limited to Ehrlich carcinoma, sarcoma 180, or implanted murine carcinoma (IMC) tumors, Meth-A fibrosarcoma or other tumors.

HepG2 cells = experiment: Medium apoB of LDL-like lipoprotein secreting cells (ELISA); format: cell-based; conditions: nontoxic concentrations, serum-free medium
Protocol: The apoB-lowering potential of Kombic Acid and its derivatives is evaluated in cells that secrete and catabolize lipoproteins similar to LDL, for example, but not limited to HepG2 cells. Confluent cells are preincubated in serum-free medium, which inhibits cell proliferation and stimulates biosynthesis of LDL-like lipoproteins. They are subsequently incubated in the same medium in the presence or absence of Kombic Acid or its derivatives at the range of nontoxic concentrations. For each compound, the highest nontoxic concentration is predetermined by a viability assay, such as but not limited to the 3-(4,5-dimethylthiazol-2-yl)-2,5-diphenyltetrazolium bromide (MTT) viability assay. At the end of the incubation, changes in medium concentration of apoB B are evaluated by ELISA and compared with changes induced in the absence of kombic acid or its derivatives.

[6] = system: MCF-7 estrogen receptor-positive human breast cancer cells; experiment: Proliferation of estrogen receptor-positive cells; format: cell-based; conditions: alone
Protocol: Human breast cancer cells are incubated in the presence and absence of kombic acid and its derivatives individually. The IC50 (the concentration of Kombic Acid or its derivatives required to inhibit cell proliferation by 50%) is then determined.

PKC = experiment: Protein kinase C activity; format: biochemical
[7] = system: MDA-MB-435 estrogen receptor-negative human breast cancer cells; experiment: [3H] thymidine incorporation, estrogen receptor-negative cells; format: cell-based
Protocol: Human cancer cells, such as, but not limited to, MDA-MB-435 estrogen receptor-negative human breast cancer cells are incubated in the presence of varying concentrations of kombic acid or its derivatives. The incorporation of [^3H] thymidine into the DNA of the cells is measured.

[8] = system: PAP2 (ras-transformed NIH 3T3 mouse fibroblasts) cells; experiment: Proliferation of PAP2 cells; format: cell-based
[9] = Cholesterol lowering in animal models; format: in vivo
Description: as §1

[10] = read-out: IC50: mean +/− Standard Deviation
[11] = individual determinations, read-out: IC50: data
[12] = inhibitor concentration 0.156 μg/mL
[13] = inhibitor concentration 0.313 μg/mL
[14] = inhibitor concentration 0.625 μg/mL
[15] = inhibitor concentration 0.625 μg/mL, peroxidation (nmoles MDA) with inhibitor divided by without

Compound: tocotrienols
reversal of inhibition by excess estrogen (MCF-7 cells): does not reverse the inhibition

IC50 [1, 10]: 4.6 µM
IC50 [1, 11]: 5.1 µM (2×) and 3.5 µM
Compound: Cc1c(C)c2c(c(C)c1O)CC[C@@](C)(CCC[C@H](C)CCC[C@H](C)CCCC(C)C)O2 [d-α-tocopherol, reference compound]

Compound: CC/C(=C(\c1ccccc1)c1ccc(OCCN(C)C)cc1)c1ccccc1 [tamoxifen]
reversal of inhibition by excess estrogen (MCF-7 cells): does reverse the inhibition

Compound: CC(C)(C)c1cc(O)ccc1O [TBHQ, tributyl-tert-hydroquinone, reference compound]
antioxidant effectiveness in edible oil [2]: effective antioxidants
Hours to end-point ([2]; soybean oil + 200 ppm): 21.10 h and 19.85 h

IC50 [3]: 0.31 µg/mL (≈ 0.72 µM)
Compound: Cc1c(C)c2c(c(C)c1O)CCC(C)(CCCC(C)CCCC(C)CCCC(C)C)O2 (racemic) [dl-α-tocopherol, reference compound]
antioxidant activity compared with natural vitamin E [1]: inhibit peroxidation equally as well as natural (d) vitamin E
% Inhibition [3, 12]: 8%
Remaining lipid peroxidation (fraction of control) [3, 12]: 0.92
% Inhibition [3, 13]: 50%
Remaining lipid peroxidation (fraction of control) [3, 13]: 0.50
% Inhibition [3, 14]: 66%
Remaining lipid peroxidation (fraction of control) [3, 15]: 0.34

PKC activity (PKC): inhibitors of PKC activity
IC50 [1, 10]: 5.2 µM
IC50 [1, 11]: 7.8 µM and 2.1 µM and 2.2 µM and 8.5 µM and 5.2 µM
IC50 [3]: 0.20 µg/mL (≈ 0.469 µM)
Compound: CC(=CCCC(C)=CCc1cc(O)cc(C)c1O)CCC=C(C)CCC=C(C)C(=O)O [Kombic Acid, 16(2′,5′-dihydroxy-3′-methylphenyl)-2,6,10,14-tetramethyl-2,6,10,14-hexadecatetraenoic acid]
plasma total and LDL cholesterol and apoB [4]: effective in reducing elevated plasma levels of total and LDL cholesterol as well as plasma apolipoprotein B (apoB) concentrations
life of mice bearing tumor cells [5]: prolong the life of mice bearing tumor cells
medium apoB (HepG2 cells): dose-dependent reduction of medium apoB B
cell proliferation [6]: can inhibit the proliferation
antioxidant effectiveness in edible oil [2]: effective antioxidants
Hours to end-point ([2]; soybean oil + 40 ppm): 8.35 h and 8.85 h
Hours to end-point ([2]; soybean oil + 300 ppm): 15.55 h and 15.40 h
antioxidant activity compared with natural vitamin E [1]: no significant difference in antioxidant activity
proliferation ([3H] thymidine incorporation) ([7]; alone): inhibit the proliferation of these cells
interaction with tamoxifen ([7]; with tamoxifen): can act synergistically with tamoxifen
cell proliferation [8]: inhibit the proliferation of these cells
cholesterol-lowering effects [9]: produce cholesterol-lowering effects in animal models
% Inhibition [3, 12]: 36%
Remaining lipid peroxidation (fraction of control) [3, 12]: 0.64
% Inhibition [3, 13]: 89%
Remaining lipid peroxidation (fraction of control) [3, 13]: 0.11
% Inhibition [3, 14]: 90%
Remaining lipid peroxidation (fraction of control) [3, 15]: 0.10
antioxidant activity ([3]; result in words): very strong antioxidant activity
reversal of inhibition by excess estrogen (MCF-7 cells): does not reverse the inhibition
